Reference: patent US5391540A, “Substituted pyridine compounds” (Rohm and Haas Company, priority 1993, dated 1995)

What was measured:
Type in all cases: in vivo
[1] = test system: Wibw; test: plant injury after spraying emerged plants (Table D); parameters: scale not given here
Summary of the method: (§1)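 Seeds or vegetative propagules of annual and perennial species were pressed into steam-sterilized silt loam, covered with 1.27 cm of topsoil/peat-moss/vermiculite mix, and grown on greenhouse benches with subirrigation. Injury was scored on emerged plants after spraying.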

[2] = test system: Cobu; test: as above; parameters: scale not given here
Summary of the method: as §1

[3] = test system: Corn; test: as above; parameters: scale not given here
Summary of the method: as §1

[4] = test system: Vele; test: as above; parameters: scale not given here
Summary of the method: as §1

[5] = test system: Hese; test: as above; parameters: scale not given here
Summary of the method: as §1

[6] = test system: Seedling Johnsongrass; test: Pre-emergent herbicidal activity (Table A); conditions: Sorghum halepense, pre-emergence, Sejg, 11.2 kg/ha, 10-14 days, read-out: herbicidal rating (% inhibition)
Summary of the method: (§2)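 Seeds were sown on compacted topsoil and covered with soil into which test compound (in acetone or water carrier) had been mixed at 11.2 kg/ha. Pans were kept watered on a greenhouse bench, and percent inhibition was scored as a rating about 10-14 days (usually 11) after treatment.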

[7] = test system: Indian Mustard; test: Pre-emergent herbicidal activity (Table A); conditions: Brassica juncea, pre-emergence, Inmu, 11.2 kg/ha, 10-14 days, read-out: herbicidal rating (% inhibition)
Summary of the method: as §2

[8] = test system: Wild Buckwheat; test: Pre-emergent herbicidal activity (Table A); conditions: Fallopia convolvulus, pre-emergence, Wibw, 11.2 kg/ha, 10-14 days, read-out: herbicidal rating (% inhibition)
Summary of the method: as §2

[9] = test system: Annual Bluegrass; test: Pre-emergent herbicidal activity (Table A); conditions: pre-emergence, Anbg, 11.2 kg/ha, 10-14 days, read-out: herbicidal rating (% inhibition)
Summary of the method: as §2

[10] = test system: Rape; test: plant injury after spraying emerged plants (Table D); parameters: scale not given here
Excerpt: (§3) Topsoil (silt loam) is sieved through a screen having 1.27 cm openings. In some of the tests the soil was mixed with fertilizer (1225 g/cu. m of 12/5/9 containing isobutylidene diurea), while in other tests the fertilizer was omitted. This mixture is steam sterilized and then placed in aluminum pans 6.985 cm deep having ten holes in the bottom each 0.635 cm in diameter. The soil mixture is compacted to a depth of 1.27 cm. from the top of the pan. A predetermined number of seeds of each of several dicotyledonous and monocotyledonous annual plant species and/or vegetative propagules for the perennial plant species are placed on the soil and pressed into the soil surface. The seeds and/or vegetative propagules are covered with 1.27 cm of a mixture of 50% topsoil and 50% of a mixture of Canadian sphagnum peat moss, vermiculite and a wetting agent. The pans are then placed on a capillary mat on a greenhouse bench and subirrigated as needed. After the plants reach the desired stage (9 to 14 days, 1 to 3 true leaf stage), each pan (except the control pans) is removed to a spraying chamber and sprayed by means of an atomizer, operating at a spray pressure of 170.3 kPa ([…]) at the application rates noted in Table D. In the spray solution is an amount of an emulsifying agent mixture (35% butylamine salt of dodecylbenzenesulfonic acid and 65% tall oil condensed with ethylene oxide in the ratio of 11 mols of ethylene oxide/mol of tall oil) to give a spray solution or suspension. The spray solution or suspension contains a sufficient amount of the candidate chemical in order to give application rates of the active ingredient corresponding to those shown in Table D below while applying a total amount of solution or suspension equivalent to 1870 L/Ha (200 gallons/acre). The pans are returned to the greenhouse and watered as before and the injury to the plants as compared to the control pans is observed at approximately 10-14 days (usually 11 days).
(§4) In the following Table D the legends used to identify the plant species are the same as those used in the preceding Table B.

[11] = test system: Cotz; test: as above; parameters: scale not given here
Excerpt: as §3, §4

Row | Structure (SMILES) | plant injury rating, Wibw ([1]; 1.1210 kg/ha) | plant injury rating, Wibw ([1]; 5.6050 kg/ha) | plant injury rating, Cobu ([2]; 1.1210 kg/ha) | plant injury rating, Cobu ([2]; 5.6050 kg/ha) | plant injury rating, Corn ([3]; 1.1210 kg/ha) | plant injury rating, Corn ([3]; 5.6050 kg/ha) | plant injury rating, Vele ([4]; 1.1210 kg/ha) | plant injury rating, Vele ([4]; 5.6050 kg/ha) | plant injury rating, Hese ([5]; 1.1210 kg/ha) | plant injury rating, Hese ([5]; 5.6050 kg/ha) | plant injury rating, Wibw ([1]; 0.2803 kg/ha) | plant injury rating, Cobu ([2]; 0.2803 kg/ha) | plant injury rating, Corn ([3]; 0.2803 kg/ha) | plant injury rating, Vele ([4]; 0.2803 kg/ha) | plant injury rating, Hese ([5]; 0.2803 kg/ha) | inhibition at 11200 g/ha [6] [%] | inhibition at 11200 g/ha [7] [%] | inhibition at 11200 g/ha [8] [%] | inhibition at 11200 g/ha [9] [%] | plant injury rating, Rape ([10]; 0.2803 kg/ha) | also measured
1 | COC(=O)c1c(OC)nc(C(F)(F)Cl)c(C(=O)OC)c1CC(C)C [Compound 30, 3,5-pyridinedicarboxylic acid, 2-(chlorodifluoromethyl)-6-methoxy-4-(2-methylpropyl)-, dimethyl ester] | 1 | 1 | 0 | 1 | 1 | 1 | 1 | 1 | 1 | 1 | – | – | – | – | – | – | – | – | – | – | plant injury rating, Wibw ([1]; 0.5605 kg/ha): 1; plant injury rating, Wibw ([1]; 2.8025 kg/ha): 1; plant injury rating, Wibw ([1]; 8.4075 kg/ha): 1; plant injury rating, Wibw ([1]; 11.2100 kg/ha): 2; plant injury rating, Cobu ([2]; 0.5605 kg/ha): 0; plant injury rating, Cobu ([2]; 2.8025 kg/ha): 1; plant injury rating, Cobu ([2]; 8.4075 kg/ha): 2; plant injury rating, Cobu ([2]; 11.2100 kg/ha): 2; plant injury rating, Corn ([3]; 0.5605 kg/ha): 1; plant injury rating, Corn ([3]; 2.8025 kg/ha): 2; plant injury rating, Corn ([3]; 8.4075 kg/ha): 1; plant injury rating, Corn ([3]; 11.2100 kg/ha): 2; plant injury rating, Vele ([4]; 0.5605 kg/ha): 1; plant injury rating, Vele ([4]; 2.8025 kg/ha): 1; plant injury rating, Vele ([4]; 8.4075 kg/ha): 2; plant injury rating, Vele ([4]; 11.2100 kg/ha): 1; plant injury rating, Hese ([5]; 0.5605 kg/ha): 1; plant injury rating, Hese ([5]; 2.8025 kg/ha): 1; plant injury rating, Hese ([5]; 8.4075 kg/ha): 2; plant injury rating, Hese ([5]; 11.2100 kg/ha): 1
2 | COC(=O)c1c(OC)nc(C(F)(F)F)c(N=CSC)c1CC(C)C [Compound 77, 3-pyridinecarboxylic acid, 2-methoxy-4-(2-methylpropyl)-5-[[(methylthio)methylene]amino]-6-(trifluoromethyl)-, methyl ester] | – | – | – | – | – | 2 | – | – | – | – | – | – | – | – | – | – | – | – | – | – | plant injury rating, Cobu ([2]; 2.8025 kg/ha): 1; plant injury rating, Cobu ([2]; 11.2100 kg/ha): 3; plant injury rating, Corn ([3]; 2.8025 kg/ha): 2; plant injury rating, Corn ([3]; 11.2100 kg/ha): 3
3 | COC(=O)c1c(OC)nc(C(F)(F)F)c(C(=O)Cl)c1CC1CC1 [Compound 113, 3-pyridinecarboxylic acid, 5-(chlorocarbonyl)-4-(cyclopropylmethyl)-2-methoxy-6-(trifluoromethyl)-, methyl ester] | 0 | 1 | 0 | 0 | 0 | 0 | 0 | 1 | 0 | 1 | 0 | 0 | 0 | 0 | 0 | 75 to 100 | 0 to 24 | 25 to 49 | 75 to 100 | 0 | plant injury rating, Rape ([10]; 1.1210 kg/ha): 0; plant injury rating, Rape ([10]; 5.6050 kg/ha): 1; plant injury rating, Cotz ([11]; 0.2803 kg/ha): 0; plant injury rating, Cotz ([11]; 1.1210 kg/ha): 0; plant injury rating, Cotz ([11]; 5.6050 kg/ha): 0
4 | COC(=O)c1c(OC)nc(C(F)(F)F)c(C(=O)n2cccn2)c1CC1CC1 [Compound 116, 3-pyridinecarboxylic acid, 4-(cyclopropylmethyl)-2-methoxy-5-(1H-pyrazo1-1-ylcarbonyl)-6-(trifluoromethyl)-, methyl ester] | 2 | 2 | 2 | 2 | 2 | 2 | 3 | 2 | 2 | 2 | 1 | 1 | 0 | 2 | 1 | 75 to 100 | 75 to 100 | 75 to 100 | 75 to 100 | 2 | plant injury rating, Wibw ([1]; 0.0701 kg/ha): 1; plant injury rating, Cobu ([2]; 0.0701 kg/ha): 0; plant injury rating, Corn ([3]; 0.0701 kg/ha): 0; plant injury rating, Vele ([4]; 0.0701 kg/ha): 1; plant injury rating, Hese ([5]; 0.0701 kg/ha): 1; plant injury rating, Rape ([10]; 0.0701 kg/ha): 1; plant injury rating, Rape ([10]; 1.1210 kg/ha): 3; plant injury rating, Rape ([10]; 5.6050 kg/ha): 3; plant injury rating, Cotz ([11]; 0.0701 kg/ha): 0; plant injury rating, Cotz ([11]; 0.2803 kg/ha): 0; plant injury rating, Cotz ([11]; 1.1210 kg/ha): 1; plant injury rating, Cotz ([11]; 5.6050 kg/ha): 1
5 | COC(=O)c1c(OC)nc(C(F)(F)F)c(C(=O)SC)c1C1CCC1 [Compound 137, 3-pyridinecarboxylic acid, 4-cyclobuty1-2-methoxy-5-[(methylthio)carbonyl]-6-(trifluoromethyl)-, methyl ester] | 3 | 2 | 1 | 3 | 0 | 1 | 3 | 2 | 3 | 3 | 0 | 0 | 0 | 3 | 1 | 75 to 100 | 75 to 100 | 75 to 100 | 75 to 100 | 3 | plant injury rating, Rape ([10]; 1.1210 kg/ha): 3; plant injury rating, Rape ([10]; 5.6050 kg/ha): 3; plant injury rating, Cotz ([11]; 0.2803 kg/ha): 1; plant injury rating, Cotz ([11]; 1.1210 kg/ha): 2; plant injury rating, Cotz ([11]; 5.6050 kg/ha): 2
